Experimental data: patent publication US12594255B2, “Lipids with odd number of carbon atoms and their use as pharmaceutical composition or nutritional supplement” (SunRegen Healthcare AG, priority 2016, dated 2026)
Read-outs that look alike come from different tables or passages of the source.

What was measured:
[1] = Cell viability of neurons pre-incubated 48 h with test item only (no AβO), MTT assay; assay type: cell-based; conditions: C57BL6/J, mouse, mouse primary cortical neurons, 1 nM compound C only, 48 h pre-incubation
Description: (§1) Mouse primary cortical neurons were pre-incubated for 48 h with vehicle, 0.05 μM DHA (used as positive control) or different concentrations of Compound C. Then, cortical neurons were treated for 24 h with vehicle (FIG. 1 left) or 1 μM AβO (FIG. 2 right) and cell viability was determined using the MTT assay (n=3 determinations per condition, 1 independent experiment), Data are represented as % of vehicle control (Mean*SD).
as §1, with “of Herb B Extracts.” for “of Compound C.”, “(FIG. 10” for “(FIG. 1”, “(FIG. 11” for “(FIG. 2”, “control (Mean±SD).” for “control (Mean*SD).”
Cortical neurons from embryonic day 16-17 are prepared from C57BL6/J mouse fetuses. In brief, dissociated cortical cells were plated (50.000 cells/well) in 48-well plates pre-coated with 1.5 μg/mL polyornithine (Sigma). […] The AβO-induced neurotoxicity was evaluated using the MTT assay.
Cortical neurons from embryonic day 16-17 are prepared from C57BL6/J mouse fetuses. […] The AβO-induced neurotoxicity was evaluated using the MTT assay. […]

[2] = system: mouse primary cortical neurons; test: Axonal growth (MAP2 immunolabelling, axonal length); assay type: cell-based; conditions: vehicle control 165.96±90.18 μm
Description: Mouse primary cortical neurons were pre-incubated for 48 h with vehicle, 60 nM sAPPα (used as positive control) or different concentrations of Compound C. Then, cortical neurons were treated for 24 h with vehicle. Data are represented as % of vehicle control (Mean±SD).
Cortical neurons from embryonic day 16-17 are prepared from C57Bl6/J mouse fetuses, as described in Example I-1. After 96-h incubation, axonal length is recorded. Briefly, cells were washed with ice-cold PBS and fixed with cold methanol. Following fixation, cells are immunolabelled using a specific antibody detecting total MAP2 protein. Antibodies to MAP2 are excellent markers on neuronal cells, their axons and neuronal dendrites. For quantification of axonal length, six independent images of labelled cells are captured using an inverted microscope. Pictures of cells are analyzed using Neuron-J software and axonal length is recorded manually. A minimum of 100 independent neurons are treated. The data are expressed as mean axonal length (expressed in μm) (Mean±SD). Statistical differences between vehicle-treated cells and cells treated with compounds are determined using a t-test.

[3] = system: human iPSC-derived neurons challenged with Aβ1-42 oligomers (AβO); test: AβO-induced neuronal death in human iPSC-derived neurons, NSE ELISA assay; assay type: cell-based; conditions: 10000 nM; for viability at 10 µM: Homo sapiens, Neuron, read-out: cell viability
Description: iPSCs were treated at 0 h (T0) with vehicle or 1 μM AβO. Different concentrations of Compound C or 0.1 μM HNG (used as positive control) were added concomitantly to AβO at 0 h (T0), 3 h (T3) or 6 h (T6) after AβO. Then, were incubated for 24 h and cell viability was determined using the NSE ELISA assay (n=6 determinations per condition, 1 independent experiment), Data are represented as % of vehicle control (Mean±SD). […]
To determine whether compound C might rescue neuronal death in human iPSC-derived neurons challenged with Aβ1-42 oligomers (AβO). In this cellular model, AβO induce a dramatic neuronal death that could be monitored by the level of neuronal specific enolase (NSE) using a specific ELISA assay. Compound C will be added at different time points (concomitantly and after AMBO) with the aim to identify rescuing effects.
Cells (HIP-Neuronal progenitors, GlobalStem, Cat #GSC-4312, Lot #20010260) are plated in 96-well plates at a density of 60.000 cells per well and culture. Before experiments, cells are matured for five weeks and kept at 37° C. in a humidified 5% CO2 atmosphere.
Cells are incubated with vehicle or 1 μM AβO in the absence or presence of different concentrations (i.e. 10, 100, 1000 and 10000 nM) of Compound C added concomitantly to AβO (T0), 3 h after AβO (T3), or 6 h after AβO (T6). Cells are incubated for 24 h in a final volume of 100 μL per well. For positive control, cells are treated similarly in the presence of 0.1 μM HNG (i.e. S14G variant of humanin peptide). In addition, neuronal loss is monitored using the detection of neuronal specific enolase (NSE) by ELISA assay according to supplier's recommendations (CloneCloud, Cat #SEA537Hu). A total of three data points per experimental condition will be generated here. […]

[4] = Solubility of compound C in stock solutions; assay type: physicochemical

SMILES: CCCCCCCCCCCCCCC(=O)OCC(COC(=O)CCCCCCCCCCCCCC)OC(=O)CCCCCCCCCCCCCC [Compound C, tripentadecanoin]
- viability at 48 h, 0.001 µM [1]: 117 ± 3.7%
- neuronal axon outgrowth (mean axonal length) ([2]; 1000 nM): 199.93±101.17 μm
- neuronal axon outgrowth (mean axonal length) ([2]; 10000 nM): 304.27±149.60 μm
- % of neuroprotection and anti-apoptotic effects ([3]; T0): 53.7%
- % of neuroprotection and anti-apoptotic effects ([3]; T3): 90.8%
- % of neuroprotection and anti-apoptotic effects ([3]; T6): 78.9%
- viability at 10 µM ([3]; T0): 76.7 ± 2.7%
- viability at 10 µM ([3]; T3): 94.2 ± 7.1%
- viability at 10 µM ([3]; T6): 88.8 ± 1.3%
- solubility in stock solutions [4]: not fully soluble
